Reference: ChEMBL document CHEMBL5104165, “Novel fragment-derived colchicine-site binders as microtubule-destabilizing agents” (Eur J Med Chem, 2022)
Active and inactive are the calls of the source. The rule behind the calls is not given here.

Assays:
HeLa = assay: Cytotoxicity against human HeLa cells assessed as inhibition of cell growth incubated for 72 hrs by resazurin dye based assay; assay type: functional
Tubulin (Homo sapiens) [1] = target: T1, Tubulin (Homo sapiens) (UniProt P68371+Q9H4B7+P0DPH7+P68366+Q13509+Q71U36+P04350+Q3ZCM7+P07437+P68363+Q9BQE3+Q6PEY2+Q13885+Q9BVA1+Q9BUF5); assay: Disruption of microtubules in human HMF3A cells at 5 uM measured after 1 hr by immunostaining based confocal microscopic analysis; assay type: cell-based
Tubulin (Homo sapiens) [2] = target: T1, Tubulin (Homo sapiens); assay: Disruption of microtubules in human HMF3A cells assessed as increase in cell size at 5 uM measured after 4 hrs by immunostaining based confocal microscopic analysis
Tubulin (Homo sapiens) [3] = target: T1, Tubulin (Homo sapiens); assay: Disruption of microtubules in human HMF3A cells assessed as increase in nucleus size at 5 uM measured after 4 hrs by immunostaining based confocal microscopic analysis; assay type: cell-based

Compound	IC50 (HeLa) [µM]	also measured
COc1ccc2[nH]c(NCc3ccco3)nc2c1	10.1	–
Cc1ccc2[nH]c(NCc3ccco3)nc2c1	5.6	–
Clc1ccc2[nH]c(NCc3ccco3)nc2c1	4.5	–
FC(F)(F)c1ccc2[nH]c(NCc3ccco3)nc2c1	9.9	–
Cc1ccc(CNc2nc3ccccc3[nH]2)o1	22.3	–
COC(=O)c1ccc2[nH]c(NCc3ccco3)nc2c1	7	–
c1ccc(Oc2ccc3[nH]c(NCc4ccco4)nc3c2)cc1	0.94	Activity (Tubulin (Homo sapiens) [1]): Active; Activity (Tubulin (Homo sapiens) [2]): Active; Activity (Tubulin (Homo sapiens) [3]): Active
c1coc(CNc2nc3ccccc3[nH]2)c1	54	–
N#Cc1ccc2[nH]c(NCc3ccco3)nc2c1	> 80	–
